Here are results for 17 compounds from patent US4352818A, “Diazepine derivatives and their use” (Hoffmann-La Roche Inc., priority 1981, dated 1982).

A word on the IC50: it is the concentration at which inhibition is half-maximal. Higher therefore signals weaker potency in that assay. The term ED50 denotes the dose at which the effect has come halfway, by size or by number of responders. A high value points to a need for a large dose.

Assay [1] concerns the target central benzodiazepine receptors. As to the kind of experiment: inhibition of the binding of tritiated diazepam at the specific benzodiazepine receptors in the cerebral cortex. To be noted: 50 percent inhibition of the specific binding of the tritiated diazepam. On the procedure: The affinity of compounds of formula I to the central benzodiazepine receptors was determined according to the method described in Life Science 20, 2101-2110 (1977) and Science 198, 849-851 (1977). According to this method, the inhibition of the binding of tritiated diazepam at the specific benzodiazepine receptors in the cerebral cortex by the respective test substances is ascertained. The IC50 ("50% inhibiting concentration") is that concentration of the respective test substance which brings about a 50 percent inhibition of the specific binding of the tritiated diazepam at the specific benzodiazepine receptors in the cerebral cortex.

Assay [2] has as its system activity of the diazepam in the pentetrazole test. As to the kind of experiment: antagonism of diazepam in the pentetrazole test. The class given is in vivo. To be noted: Mus musculus, po; counteracts the diazepam effect in 50% of the animals; diazepam 5 mg/kg i.p. 1 hour before, test compound p.o. 15 minutes before pentetrazole 120 mg/kg i.p.; mice. As to the method: (§1) This property was used to evaluate the test described hereinafter which permits the determination of compounds which are capable of antagonizing the central properties of 1,4-benzodiazepines which have tranquillizing activity.
(§2) The antagonistic activity of the compounds investigated, i.e. their ability to counteract the activity of the diazepam in the pentetrazole test, is determined by counting the mice which suffer convulsive attacks in this test.
In the following Table there are presented the results which have been obtained with representative members of the class of compound defined by formula I in the test previously described. The ED50 is the amount of test compound in mg/kg (p.o.) which in 50% of the animals counteracts the diazepam effect in the above test. Moreover, the Table contains the IC50 value (defined above) for all test compounds listed therein.

The subject of assay [3] is convulsive attacks in the pentetrazole test. As to the kind of experiment: pentetrazole test (anticonvulsant activity of diazepam). The class given is in vivo. To be noted: diazepam 5 mg/kg i.p. (supramaximal dosage), more than 900 mice. On the procedure:
as §1, §2

For `O=C1c2c(Cl)cccc2-n2cnc(Cl)c2C2C=CCN12` (racemic) [(a) H Cl Cl --CH=CH--CH2 -- O (R/S), (R,S)-1,8-dichloro-11,13a-dihydro-9H-imidazo[1,5-a]pyrrolo[2,1-c][1,4]benzodiazepin-9-one], the IC50 in assay [1] was found to be 0.0039 µM. Further, it took a dose of 1 mg/kg to reach the 50% effect level in assay [2] (ED50).

As to `O=C1c2c(Cl)cccc2-n2cncc2C2C=CCN12` (racemic) [(a) H Cl H --CH=CH--CH2 -- O (R/S), (R,S)-8-chloro-11,13a-dihydro-9H-imidazo[1,5-a]pyrrolo[2,1-c][1,4]benzodiazepin-9-one], in assay [1], the IC50 was found to be 0.24 µM. In assay [2], this compound had an ED50 of 10.9 mg/kg.

On to `CN1Cc2c(Br)ncn2-c2ccc(F)cc2C1=O` [(a) F H Br H --CH3 O --, 3-bromo-8-fluoro-4,5-dihydro-5-methyl-6H-imidazo[1,5-a][1,4]benzodiazepin-6-one], for which the IC50 in assay [1] came to 0.051 µM. The ED50 in assay [2] amounted to 7.1 mg/kg.

In the case of `CN1Cc2c(Cl)ncn2-c2ccc(F)cc2C1=O` [(a) F H Cl H --CH3 O --, 3-chloro-8-fluoro-4,5-dihydro-5-methyl-6H-imidazo[1,5-a][1,4]benzodiazepin-6-one], the IC50 in assay [1] amounted to 0.028 µM. Besides, the ED50 in assay [2] came to 2.3 mg/kg.

For the compound `COCc1ncn2c1CN(C)C(=O)c1c(Cl)cccc1-2` [(a) H Cl --CH2 OCH3 H --CH3 O --, 7-chloro-4,5-dihydro-3-(methoxymethyl)-5-methyl-6H-imidazo[1,5-a][1,4]benzodiazepin-6-one], the IC50 in assay [1] came out at 0.03 µM. The 50% effect level in assay [2] (ED50) was put at a dose of 1.4 mg/kg.

Compound `CN1Cc2c(Cl)ncn2-c2cccc(Cl)c2C1=O` [(a) H Cl Cl H --CH3 O --, 3,7-dichloro-4,5-dihydro-5-methyl-6H-imidazo[1,5-a][1,4]benzodiazepin-6-one] came in with an IC50 in assay [1] of 0.0036 µM. The same compound returned an ED50 in assay [2] of 0.9 mg/kg.

Compound `CN1Cc2cncn2-c2cccc(Cl)c2C1=O` [(a) H Cl H H --CH3 O --, 7-chloro-4,5-dihydro-5-methyl-6H-imidazo[1,5-a][1,4]benzodiazepin-6-one] had an IC50 in assay [1] of 0.11 µM. The compound also displayed an ED50 in assay [2] of 6.2 mg/kg.

For the compound `COCc1ncn2c1CN(C)C(=O)c1ccccc1-2` [(a) H H --CH2 OCH3 H --CH3 O --, 4,5-dihydro-3-(methoxymethyl)-5-methyl-6H-imidazo[1,5-a][1,4]benzodiazepin-6-one], in assay [1], the IC50 stood at 0.38 µM. Further, the 50% effect level in assay [2] (ED50) was put at a dose of 8.9 mg/kg.

In assay [1], `CN1Cc2c([N+](=O)[O-])ncn2-c2ccccc2C1=O` [(a) H H --NO2 H --CH3 O --, 4,5-dihydro-5-methyl-3-nitro-6H-imidazo[1,5-a][1,4]benzodiazepin-6-one] showed a concentration for half-maximal inhibition (IC50) of 0.072 µM. For the same compound, the ED50 in assay [2] amounted to 4 mg/kg.

In assay [1], `O=C1c2ccccc2-n2cnc(Br)c2[C@@H]2CCCN12` [(a) H H Br --(CH2)3 -- O (S), (S)-1-bromo-11,12,13,13a-tetrahydro-9H-imidazo[1,5-a]pyrrolo[2,1-c][1,4]benzodiazepin-9-one] registered an IC50 of 0.048 µM. For the same compound, in assay [2], the ED50 was 9.9 mg/kg.

In assay [1], `CN1Cc2c(Br)ncn2-c2ccccc2C1=O` [(a) H H Br H --CH3 O --, 3-bromo-4,5-dihydro-5-methyl-6H-imidazo[1,5-a][1,4]benzodiazepin-6-one] had an IC50 of 0.034 µM. The compound also had an ED50 in assay [2] of 4.5 mg/kg.

In the case of `O=C1c2ccccc2-n2cnc(Cl)c2[C@@H]2CCCN12` [(a) H H Cl --(CH2)3 -- O (S), (S)-1-chloro-11,12,13,13a-tetrahydro-9H-imidazo[1,5-a]pyrrolo[2,1-c][1,4]benzodiazepin-9-one], in assay [1], the IC50 was 0.12 µM. This compound showed an ED50 in assay [2] of 8 mg/kg.

In assay [1], `CN1Cc2c(Cl)ncn2-c2ccccc2C1=O` [(a) H H Cl H --CH3 O --, 3-chloro-4,5-dihydro-5-methyl-6H-imidazo[1,5-a][1,4]benzodiazepin-6-one] had an IC50 of 0.1 µM. Also, in assay [2], the ED50 was 1.7 mg/kg.

The compound `CN1Cc2c(Cl)ncn2-c2ccccc2C1=S` [(a) H H Cl H --CH3 S --, 3-chloro-4,5-dihydro-5-methyl-6H-imidazo[1,5-a][1,4]benzodiazepine-6-thione] yielded an IC50 in assay [1] of 0.25 µM. Also, the ED50 in assay [2] came out at 10.5 mg/kg.

As to `CN1Cc2c(I)ncn2-c2ccccc2C1=O` [(a) H H J H --CH3 O --, 4,5-dihydro-3-iodo-5-methyl-6H-imidazo[1,5-a][1,4]benzodiazepin-6-one], the 50% inhibitory concentration (IC50) in assay [1] stood at 0.023 µM. Also, the 50% effect level in assay [2] (ED50) was put at a dose of 2.5 mg/kg.

Take `O=C1c2sccc2-n2cnc(Cl)c2[C@@H]2CCCN12` [(b) -- -- Cl --(CH2)3 -- O (S), (S)-1-Chloro-10,11,12,12a-tetrahydro-8H-imidazo[5,1-c]pyrrolo[1,2-a]thieno[3,2-e][1,4]diazepin-8-one]: the IC50 in assay [1] was determined as 0.017 µM. Further, the ED50 in assay [2] is 0.83 mg/kg.

As for `CN1C(=O)CN=C(c2ccccc2)c2cc(Cl)ccc21` [diazepam], in assay [3], the “protection from convulsive attacks” value is on record as “protects all experimental animals from convulsive attacks”.
